Source: patent US10532066B2, “Surfactant lipids, compositions thereof, and uses thereof” (National Jewish Health, priority 2007, dated 2020)

Legend:
RSV = RSV plaque progression in Hep2 monolayers, lipid in agar overlay; format: cell-based, Respiratory Syncytial Virus (RSV); details: lipid in agar overlay 5 hours after virus, POPG 200-500 ug/ml, POPC 500 ug/ml, 5 days
Protocol: Monolayers of Hep2 cells were subjected to RSV infection at levels that produce ca 100 plaques per well in quantitative plaque assays. The virus was incubated with the cells for 5 hours prior to agar overlay. The agar overlays contained either no additions, or POPG (200-500 ug/ml) or POPC (500 ug/ml).
The effects of POPG upon plaque formation as shown in Panel a of FIG. 39 were quantified in 3 independent experiments and are presented in this figure. The left panel of FIG. 40 provides the numbers of definite, and minute indefinite plaques formed in the absence and presence of POPG (200-500 ug/ml) as indicated. The right panel of FIG. 40 provides the numbers of definite plaques observed in the absence and presence of either POPG or POPC (200-500 ug/ml) as indicated.

[1] = test system: Respiratory Syncytial Virus (RSV); assay: RSV-induced cytokine production in NHBE cells; format: cell-based; details: RSV multiplicity 3, 48 h, lipid 200 ug/ml
[2] = test system: Respiratory Syncytial Virus (RSV); assay: Cytopathic effects of RSV upon BEAS2B cells (photomicrography); format: cell-based; details: multiplicity 3, 72 h, lipid 200 ug/ml
Protocol: (§1) Monolayers of BEAS2B cells were infected with RSV at a multiplicity of 3 for 72 h. Infections were performed on cells in either the absence or the presence of POPG (200 ug/ml). The cell monolayers were photographed at a magnification of 200×. Controls consisted of no viral challenge in either the presence or absence of POPG as indicated.
(§2) Monolayers of BEAS2B cells were infected with RSV at a multiplicity of 3 for 72 h. Infections were performed on cells in either the absence (b) or the presence (c,f) of POPG (200 ug/ml) and POPC (200 ug/ml) as indicated. Cells were photographed at a magnification of 200×. Controls (a,d,e) consisted of cell layers either not exposed to virus or exposed to POPG, and POPC in the absence of virus as indicated.
Monolayers of BEAS2B cells were infected with RSV at a multiplicity of 0.5-1, in either the presence or absence of 200 ug/ml POPG, or 200 ug/ml POPC, as indicated.
Monolayers of BEAS2B cells were either uninfected (CONL) or challenged with RSV at a multiplicity of 0.5/cell (RSV). Where indicated in the FIG. 44, RSV challenged cells were also treated with POPC (200 ug/ml) or POPG (200 ug/ml) liposomes; or POPG nanodiscs (nanoPOPG) at concentrations ranging from 100-300 ug/ml. Selected panels and fields are also shown at 400× magnification in FIG. 45.
Where indicated in FIG. 46, RSV challenged cells were also treated with nanodisc forms of dipalmitoyl-phosphatidylcholine (nanoDPPC), palmitoyl-oleoyl-phosphatidylcholine (nanoPOPC), or dioleoyl-phosphatidylcholine (nanoDOPC), dipalmitoyl-phosphatidylglycerol (nanoDPPG), dimyristoyl-phosphatidylglycerol (nanoDMPG), or dioleoyl-phosphatidylglycerol (nanoDOPG). At 72 h after infection, the cultures were examined by photomicrography at a magnification of 200×.

[3] = test system: Respiratory Syncytial Virus (RSV); assay: RSV-induced cytokine production in BEAS2B cells; format: cell-based; details: RSV multiplicity 3, 48 h, lipid 200 ug/ml
[4] = test system: MAPK, IkBα and MKP-1 in differentiated U937 cells; assay: Western blot of LPS induced MAPK and IkBα phosphorylation and MKP-1 expression; format: cell-based, human; details: LPS 10 ng/ml, liposomes 200 μg/ml
Protocol: FIG. 4. POPG inhibits LPS induced MAPK and IkBα phosphorylation and MKP-1 expression. POPG liposomes (200 μg/ml) were added to monolayer cultures of differentiated U937 cells that received either no treatment or 10 ng/ml LPS. After incubating for the indicated time, cells were lysed using lysis buffer containing detergent, protease inhibitors and phosphatase inhibitors. Aliquots with 15 μg of protein from lysates were separated by SDS-PAGE and transferred onto nitrocellulose membranes. The amount of phosphorylation was detected using phospho-specific antibodies to p38MAPK, p42/p44 ERK, p46-p54 INK and phosphorylated IkBα. To determine equal loading of proteins between samples, the membranes were probed with rabbit polyclonal p46 INK, p42/p44 ERK, p38MAPK and IkBα antibodies. The expression of MKP-1 was detected with a polyclonal MKP-1 antibody.
FIG. 5. Quantification of POPG inhibition of LPS induced signaling. Western blot analysis as described in FIG. 4 was performed three or four times on separate samples and the intensity of phospho-p38, phospho-IkBα, phosphoERK, phospho JNK, phospho IkBα, total IkBα and MKP-1 was calculated using NIH Image J1.34 software.
FIG. 6. Molecular specificity in POPG action. Liposomes composed of POPC, DPPG or POPG were added to monolayer cultures of differentiated U937 cells that received either no treatment or 10 ng/ml LPS, as indicated. After 30 or 60 min cells were lysed and 15 μg of cellular protein from cultures was separated by SDS-PAGE and transferred onto nitrocellulose membranes. Phosphorylated and nonphosphorylated proteins were detected as described in FIG. 4.
FIG. 7. Comparative quantification of lipid dependent antagonism of LPS signaling. Western blot analysis was performed as described in FIG. 6 in three independent experiments. The intensity of the phosphorylated (p38, ERK, JNK and IkBα) and nonphosphorylated (total IkBα and MKP-1) proteins of interest was measured using NIH Image 0.1.34 software. Significance—*p<0.05, ** p<0.01.
Monolayers of unstimulated or stimulated macrophages were lysed on ice with 250 μl of ice-cold lysis buffer [50 mM Tris.HCl, pH 8.0, containing 137 mM NaCl, 10% (vol/vol) glycerol, 1% (vol/vol) Nonidet P-40, 1 mM NaF, 10 μg/ml leupeptin, 10 μg/ml aprotinin, 2 mM Na3VO4, and 1 mM phenylmethylsulfonyl fluoride (29). Insoluble nuclear material was pelleted by centrifugation at 14,000×g for 10 min at 4° C. and the supernatants were collected. 15 μg of protein from lysates was separated by SDS-PAGE and transferred onto nitrocellulose membranes (30). The blots were then washed in Tris-Tween-buffered saline [TTBS, 20 mM Tris-HCl buffer, pH 7.6, containing 137 mM NaCl and 0.05% (vol/vol) Tween 20], blocked with 5% (wt/vol) nonfat dry milk for 1 hour, and probed according to the method described by Towbin et. al. (30) with phospho-specific antibodies to p46-p54 JNK, p42/p44 ERK, and p38MAPK, or IkBα or with a polyclonal MKP-1 or IkBα antibodies in 5% (wt/vol) BSA dissolved in TTBS. With the use of horseradish peroxidase-conjugated secondary anti-rabbit or anti-mouse antibody, bound antibodies were detected by enhanced chemiluminescence (ECL plus, Amersham Biosciences, Piscataway, N.J.). To determine loading of proteins between samples, the membranes were probed with rabbit polyclonal p46 JNK, p42/p44 ERK, and p38MAPK antibodies.

[5] = test system: Respiratory Syncytial Virus (RSV); assay: Cytopathic effects of RSV upon NHBE cells (photomicrography); format: cell-based; details: multiplicity 3, 72 h, lipid 200 ug/ml
Protocol: as §1, with “NHBE” for “BEAS2B”
as §2, with “NHBE” for “BEAS2B”
Monolayers of normal human bronchial epithelial cells were infected with RSV at a multiplicity of 0.5-1, in either the presence or absence of 200 ug/ml POPG, or 200 ug/ml POPC, as indicated.

Structure (SMILES): CCCCCCCC/C=C\CCCCCCCC(=O)O[C@H](COC(=O)CCCCCCCCCCCCCCC)COP(=O)([O-])OCC[N+](C)(C)C [POPC, palmitoyl-oleoyl-phosphatidylcholine, reference compound]
- progression of RSV infection (plaques) (RSV): bullseye plaques
- IL-6 production [1]: not
- cytopathic effects of RSV [2]: not
- IL-6 production [3]: not
- LPS-induced MKP-1 expression [4]: neither POPC nor DPPG exerted a significant effect
- LPS-induced phosphorylation of p38, ERK, JNK and IkBα ([4]; 15-60 min): neither POPC nor DPPG exerted a significant effect
- cytopathic effects of RSV [5]: not
